Reference: patent EP4782447A1, “HETEROAROMATIC SULFONAMIDE STRUCTURAL COMPOUND, PHARMACEUTICAL COMPOSITION THEREOF, AND USE THEREOF” (Shanghai Yingli Pharmaceutical Co., Ltd, priority 2023, dated 2025)

Columns and labels:
[1] = test system: HCC1428 cell-derived tumors; assay: In vivo pharmacodynamic study, subcutaneously implanted HCC1428 tumor model; conditions: 30 mg/kg PO, BID*28; BALB/c nude mice with subcutaneous HCC1428 tumors; start at average tumor volume 195 mm^3
Procedure: Estrogen was administered to BALB/c nude mice via injection twice weekly until the end of the experiment, subcutaneous inoculation with 1×10^7 HCC1428 cells (suspended in 100 µL of RPMI medium supplemented with Matrigel at a 1:1 volume ratio). Grouping and drug administration were initiated when the average tumor volume reached 150-200 mm^3. During the experiment, the body weight of the mice and tumor size were measured twice weekly, and the clinical symptoms of the animals were observed and recorded daily. The length (a) and width (b) of the tumors were measured using a vernier caliper, and the tumor volume was calculated according to the formula: TV = a×b^2/2. The tumor growth inhibition rate (TGI, %) was calculated based on the tumor volume using the formula: TGI (%) = [1 - (Ti - T0)/ (Vi - V0)] ×100%, wherein Ti represents the mean tumor volume of the treatment group on the i-th day after grouping, T0 represents the mean tumor volume of the treatment group at the time of grouping, Vi represents the mean tumor volume of the vehicle control group on the i-th day after grouping, and V0 represents the mean tumor volume of the vehicle control group at the time of grouping.

[2] = Pharmacokinetic study of mice via intravenous injection and oral administration; type: in vivo; conditions: mouse, male CD-1 mice, plasma, a: mixed blood samples, b: mean of individual samples
Procedure: Plasma samples from male C57BL/6J mice or male CD-1 mice after intravenous injection and oral administration dosing with the tested compound, were collected from the orbital venous plexus at 8-9 time points (e.g., 5 min, 15 min, 30 min, 1 h, 2 h, 4 h, 7 h, 24 h or 5 min, 15 min, 30 min, 1 h, 2 h, 4 h, 6 h, 8 h, 24 h). The collected blood samples were transferred to microcentrifuge tubes containing EDTA-K2 anticoagulant, centrifuged at 4000 g and 4°C for 5 min. The resulting supernatant was pipetted and stored in a -75°C ± 15°C refrigerator . The compound concentrations in plasma samples at different time points were determined via LC-MS/MS, and the relevant pharmacokinetic parameters were calculated using WinNonlin software. Table 3-1 Pharmacokinetic determination results of the representative compounds of the present disclosure

PARG (389-976) = molecular target: T1, PARG (389-976) (Homo sapiens, UniProt Q86W56); assay: PARG enzyme inhibition assay (TR-FRET); type: biochemical; conditions: PARG 1.5 pM, Bio PARylated His-TEV-PARP1 substrate 12 nM
T1 construct: 5 µL of PARG (389-976) (manufactured by ChemPartner Co., Ltd.) was added into the 384-well plate; purchased ChemPartner Co., Ltd
Procedure: The in vitro PARG assay experiment was performed in a standard 384-well plate with a total reaction volume of 15 µL. In a buffer solution (50 mM Tris-HCl pH 7.5, 30 mM KCl, 1 mM EDTA, 3 mM DTT, 0.01% Tween-20, 0.025% BSA), 5 µL of PARG (389-976) (manufactured by ChemPartner Co., Ltd.) was added into the 384-well plate containing test compounds (with various concentrations) to obtain a final concentration of 1.5 pM, followed by incubation at room temperature for 30 minutes. Subsequently, 5 µL of Bio PARylated His-TEV-PARP1 (2-1014) substrate (manufactured by ChemPartner Co., Ltd.) was added into the above reaction mixture to obtain a final concentration of 12 nM, and the reaction was carried out at room temperature for 30 minutes after the addition was completed. Then, 5 µL of detection reagent was added. The detection reagent was prepared by buffer solution (50 mM Tris-HCl pH 7.5, 30 mM KCl, 1 mM EDTA, 3 mM DTT, 0.01% Tween-20, 0.025% BSA) consisting of 3 µM compound PDD00017273, 9 nM Mab anti-6HIS XL665 (Cisbio: 61HISXLA) and 0.9 nM streptavidin cryptate (Cisbio: 610SATLA). All three components were used at 3X working concentration, corresponding to final concentrations of 1 µM, 3 nM and 0.3 nM, respectively. After incubation at room temperature for 120 minutes in the dark place, the TR-FRET signals were measured at an excitation wavelength (Ex) of 340 nm, emission wavelengths (Em) of 665 nm and 615 nm. The ratio for each well was calculated as Em 665 / Em 615, and the compound inhibition rate was determined based on the obtained data. Table 1 Biochemical activity against PARG of the representative compounds of the rresent invention

HCC1395 = assay: Inhibitory effect on cell line proliferation detected by CTG assay; type: cell-based; conditions: Homo sapiens, 168 h; HCC1395 cells, 7 days, CellTiter-Glo
Procedure: The relevant assays were performed in 3 84-well plates or 96-well plates. The detailed procedure is as follows: The tested cell suspension was added into 384-well or 96-well plates (excluding peripheral wells) (384-well plate: 50 µL; 96-well plate: 100 µL), and the plates were incubated in a carbon dioxide incubator overnight; specifically, HCC1395 and HCC1428 cells were incubated in a 5% carbon dioxide incubator at 37°C overnight. The tested compounds (9-10 compound concentration gradients via 3-fold serial dilution) were added into the corresponding well by a HPD300 micro-dosing instrument. The cell plates were incubated in a carbon dioxide incubator for 7 days; specifically, for HCC1395 and HCC1428 cells, maintaining the incubation condition at 5% carbon dioxide and 37°C throughout this period. On the day of detection, firstly, the 384-well or 96-well plates were equilibrated at room temperature for 10-30 minutes, and then CellTiter-Glo reagent was added into each plate (384-well plate: 25 µL; 96-well plate: 100 µL), the plates were shaked for 10 minutes in the dark place, and incubated for another 10 minutes. The plates were placed into the Victor NIVO microplate reader for measurement. The efficacy inhibition rate curves were ploted using XLFit software and the IC50 values were calculated. Table 2 Anti-proliferative activity assay results of the representative compounds of the present disclosure against cell lines

[3] = Intravenous administration (5mg/kg)
[4] = in vivo, Intravenous administration (5mg/kg)
[5] = in vivo, Oral administration (10mg/kg)

T1 sequence (Q86W56 389-976): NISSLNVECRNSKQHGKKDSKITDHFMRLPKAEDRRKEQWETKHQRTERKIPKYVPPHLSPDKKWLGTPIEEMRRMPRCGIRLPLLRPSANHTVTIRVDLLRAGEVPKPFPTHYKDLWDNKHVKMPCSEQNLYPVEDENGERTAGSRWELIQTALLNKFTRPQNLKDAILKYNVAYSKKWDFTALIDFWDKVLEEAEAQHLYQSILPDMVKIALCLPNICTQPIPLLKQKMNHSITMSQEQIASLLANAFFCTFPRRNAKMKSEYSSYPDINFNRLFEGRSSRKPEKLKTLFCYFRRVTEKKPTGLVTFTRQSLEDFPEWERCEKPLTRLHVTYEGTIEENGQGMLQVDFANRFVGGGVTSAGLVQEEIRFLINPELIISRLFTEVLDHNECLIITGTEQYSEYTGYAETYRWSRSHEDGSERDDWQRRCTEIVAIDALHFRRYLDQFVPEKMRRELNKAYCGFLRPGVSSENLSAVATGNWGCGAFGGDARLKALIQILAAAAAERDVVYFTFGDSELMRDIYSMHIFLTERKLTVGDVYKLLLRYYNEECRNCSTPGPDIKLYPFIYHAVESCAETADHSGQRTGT

SMILES | AUC(0-inf) [2, 3] [ng·h/mL] | AUC(0-t) [2, 3] [ng·h/mL] | clearance [2, 3] [mL/min/kg] | AUC(0-inf) ([2]; Oral administration (10mg/kg)) [ng·h/mL] | AUC(0-t) ([2]; Oral administration (10mg/kg)) [ng·h/mL] | Cmax ([2]; Oral administration (10mg/kg)) [ng/mL] | IC50 (PARG (389-976)) [nM] | IC50 (HCC1395) [µM] | other results
CC(C)S(=O)(=O)N1CC=C(c2c(F)c(S(=O)(=O)NC3(C#N)CC3)cc3c(-c4nnc(C(F)(F)F)s4)nn(C)c23)CC1 [Compound 1] | 44100 | 44000 | 1.89 | 32800 | 32800 | 4320 | 0.23 | 0.0949 | Tumor Growth Inhibition Rate TGI (%) [1]: 106.8%
CC1=C(c2c(F)c(S(=O)(=O)NC3(C#N)CC3)cc3c(-c4nnc(C(F)(F)F)s4)nn(C)c23)CCN(S(=O)(=O)C(C)C)C1 [Compound 2] | 50100 | 49600 | 1.68 | 46900 | 46700 | 5370 | 0.3 | 0.0368 | 
CC(C)S(=O)(=O)N1CC=C(c2c(F)c(S(=O)(=O)NC3(C#N)CC3)cc3c(-c4nnc(C(F)F)s4)nn(C)c23)CC1 [Compound 3] | 33700 | 33700 | 2.47 | 12000 | 12000 | 3300 | 0.19 | 0.0992 | 
CC1=C(c2c(F)c(S(=O)(=O)NC3(C#N)CC3)cc3c(-c4nnc(C(F)F)s4)nn(C)c23)CCN(S(=O)(=O)C(C)C)C1 [Compound 4] | 20300 | 18400 | 4.17 | 11300 | 11000 | 2010 | 0.48 | 0.0445 | 
CC1=C(c2c(F)c(S(=O)(=O)NC3(C)CC3)cc3c(-c4nnc(C(F)(F)F)s4)nn(C)c23)CCN(S(=O)(=O)C(C)C)C1 [Compound 5] |  |  |  |  |  |  | 0.43 | 0.043 | 
CC(C)S(=O)(=O)N1CC=C(c2c(F)c(S(=O)(=O)NC3(C)CC3)cc3c(-c4nnc(C(F)(F)F)s4)nn(C)c23)CC1 [Compound 6] |  |  |  |  |  |  | 0.35 | 0.0913 | 
CC(C)S(=O)(=O)N1CC=C(c2c(F)c(S(=O)(=O)NC3(C)CC3)cc3c(-c4nnc(C(F)F)s4)nn(C)c23)CC1 [Compound 7] |  |  |  |  |  |  | 0.21 | 0.074 | 
CC1=C(c2c(F)c(S(=O)(=O)NC3(C)CC3)cc3c(-c4nnc(C(F)F)s4)nn(C)c23)CCN(S(=O)(=O)C(C)C)C1 [Compound 8] |  |  |  |  |  |  | 0.17 | 0.0322 | 
CC(C)C(=O)N1CC=C(c2c(F)c(S(=O)(=O)NC3(C#N)CC3)cc3c(-c4nnc(C(F)F)s4)nn(C)c23)CC1 [Compound 9] | 8560 | 8550 | 9.8 | 11500 | 11500 | 6160 | 0.56 | 0.0446 | 
CC(C)C(=O)N1CC=C(c2c(F)c(S(=O)(=O)NC3(C#N)CC3)cc3c(-c4nnc(C(F)(F)F)s4)nn(C)c23)CC1 [Compound 10] |  |  |  |  |  |  | 1.24 |  | 
CC(C)C(=O)N1CC=C(c2c(F)c(S(=O)(=O)NC3(C)CC3)cc3c(-c4nnc(C(F)F)s4)nn(C)c23)CC1 [Compound 11] |  |  |  |  |  |  | 0.7 |  | 
CCC1=C(c2c(F)c(S(=O)(=O)NC3(C#N)CC3)cc3c(-c4nnc(C(F)(F)F)s4)nn(C)c23)CCN(S(=O)(=O)C(C)C)C1 [Compound 13] |  |  |  |  |  |  |  | 0.0313 | AUC(0-inf) [2, 4]: 35900 ng·h/mL; AUC(0-t) [2, 4]: 35900 ng·h/mL; clearance [2, 4]: 2.32 mL/min/kg; AUC(0-inf) [2, 5]: 25400 ng·h/mL; AUC(0-t) [2, 5]: 25400 ng·h/mL; Cmax [2, 5]: 2500 ng/mL
